The values that follow come from patent publication EP4417202A1, “ANTI-CANCER ACTION OF BAG1-SELECTIVE IMIDAZOPYRIDINE COMPOUNDS IN STEROID HORMONE RECEPTOR-POSITIVE BREAST AND PROSTATE CANCER” (Karlsruher Institut für Technologie, priority 2023, dated 2024).

In data set [1] the test system is reactive oxygen species (ROS). Briefly: Reduced 2',7'-dichlorofluorescein (DCF) diacetate oxidation assay. The data set is classed as cell-based. The following applies: 48 h. The procedure:
For measurements of ROS levels, MCF-7 and T47D cells were seeded at 1×10^3 cells in RPMI 1640 supplemented with 10% FBS and treated with 10^-9 - 10^-6 M X15695 for 48 h. Afterwards, cells were loaded with 10 µM) H2DCF-DA (Thermo Fisher Scientific, Karlsruhe, Germany) in phenol red-free medium for 40 min. Cells were subsequently washed with medium and further incubated in medium for 120 min before analysis of fluorescence at 485 nm excitation and 530 nm emission using a multi-well fluorescence reader (SpectraMax iD3, Molecular Devices with SoftMax Pro 7 software, Biberach an der Riss, Germany). After the DCF assay, cells were frozen at -80°C overnight. After thawing, DNA was stained with a Hoechst dye (10 µg/ml final concentration) for 30 min at room temperature and fluorescence was measured at 352 nm excitation and 454 nm emission in a multi-well fluorescence reader (SpectraMax iD3, Molecular Devices with SoftMax Pro 7 software, Biberach an der Riss, Germany). DCF fluorescent intensities were normalized to Hoechst fluorescent intensities.

The subject of data set [2] is 22Rv.1. Briefly: Clonogenic assay (clonal expansion). The data set is classed as cell-based. The following applies: Homo sapiens, 22Rv1; Prostate Cancer (22Rv.1), AR+; inhibition of clonal expansion. The procedure:
(§1) Cells were seeded at a density of 1-2×10^3 cells/well in a 6 well plate in RPMI 1640 supplemented with 10% FBS, penicillin (100 u/ml), streptomycin (100 u/ml), and L-glutamine (2 mM). Cells were treated with increasing concentrations of X15695 and cultured for 14 to 21 days. Medium and compounds were exchanged after 7 days. Cells were fixed with methanol/ acetic acid mixture (3:1 v/v) and the formation of colonies was visualized using 0.5% crystal violet (w/v) in 20% methanol (v/v). Plates were scanned in a conventional office scanner (Epson). The area covered by colonies was calculated using the ColonyArea Plugin for ImageJ.

For data set [3], the system named is A549. Briefly: Clonogenic assay (clonal expansion). Type of data set: cell-based. Conditions: A549 (lung). Here is the method: as §1
The test system of data set [4] is DU145. Kind of data set: Clonogenic assay (clonal expansion). Type of data set: cell-based. Conditions: Homo sapiens, DU-145; Prostate Cancer (DU145), AR-; inhibition of clonal expansion. Here is the method: as §1
For data set [5], the system named is HeLa. Kind of data set: Clonogenic assay (clonal expansion). The data set is classed as cell-based. Conditions: HeLa (cervical). Here is the method: as §1
Data set [6] deals with MCF-7. Kind of data set: Clonogenic assay (clonal expansion). Type of data set: cell-based. The procedure:
as §1

The test system of data set [7] is MDA-MB231. Kind of data set: Clonogenic assay (clonal expansion). Type of data set: cell-based. Conditions: Homo sapiens, MDA-MB-231; Breast Cancer (MDA-MB231), ER-; inhibition of clonal expansion. Here is the method:
as §1

For data set [8], the system named is PC3. Kind of data set: Clonogenic assay (clonal expansion). The data set is classed as cell-based. Conditions: Homo sapiens; Prostate Cancer (PC3), AR-; inhibition of clonal expansion. The procedure:
as §1

Data set [9] deals with T47D. Briefly: Clonogenic assay (clonal expansion). Type of data set: cell-based. Conditions: Homo sapiens; Breast Cancer (T47D), ER+; inhibition of clonal expansion. The procedure:
as §1

The test system of data set [10] is TRMCF-7 cells. Kind of data set: Clonogenic assay (clonal expansion). Type of data set: cell-based. The procedure:
as §1

The test system of data set [11] is U2OS. Kind of data set: Clonogenic assay (clonal expansion). Type of data set: cell-based. Conditions: U2OS (osteosarcoma). The procedure: as §1
Data set [12] has as its system ZR75-1. Kind of data set: Clonogenic assay (clonal expansion). The data set is classed as cell-based. Conditions: Homo sapiens, ZR-75-1; Breast Cancer (ZR75-1), ER+; inhibition of clonal expansion. The procedure:
as §1

The test system of data set [13] is MCF-7 tumors. Kind of data set: Mouse xenograft experiment, MCF-7. Type of data set: in vivo. Conditions: MCF-7 xenograft. Here is the method: (§2) MCF-7 and LAPC-4 cells (2×10^6) were suspended in 100 µl PBS: Matrigel (Corning NY USA, 1:1) and injected subcutaneously into both flanks of 6-7 weeks old female (for MCF-7 cells) and male (for LAPC-4 cells) athymic nude-Foxn1^nu mice (Envigo RMS GmbH, Düsseldorf, Germany). When tumor volumes were around 50 to100 mm^3, mice were randomized into four groups (7 mice per group) and treated daily by oral gavage as follows: (1) Control group (Vehicle) (corn oil, 1.0% dimethyl sulfoxide (DMSO) and (2) X15695 group, 30 mg per kg body weight) for the MCF-7 tumors or (1) Control group (Vehicle) (corn oil, 1.0% dimethyl sulfoxide (DMSO) (2) enzalutamide (Enza group, 15 mg per kg body weight), (3) X15695 group, 30 mg per kg body weight) and, (4) X15695 group (15 mg per kg body weight) for the LAPC-4 tumors. Body weight and tumor volumes were measured twice a week. Tumor volume was measured with a digital vernier caliper and calculated using the formula vol = length × width × height × 0.5236 and recorded or calculated relative to the starting volume which was nominally set at 100%. After 16 days for the MCF-7 tumors or 42 days for the LAPC-4 tumors, mice were sacrificed and the tumors removed, photographed, and weighed. Percent body weight change was calculated using the following formula: group percent weight change = [(new weight - initial weight)/initial weight] × 100]. Tumors were snap-frozen and stored for Western blot analysis.

For data set [14], the system named is LAPC-4 tumors. Briefly: Mouse xenograft experiment, LAPC-4. The data set is classed as in vivo. Conditions: LAPC-4 xenograft, 42 days. Here is the method:
as §2, with “([…]),” for “(2) enzalutamide (Enza group, 15 mg per kg body weight),”

[15] abbreviates: 30 mg/kg body weight per os daily.
Where [16] appears, read: Western blot after the treatment period.

What is called IC50 is the concentration that gives 50% inhibition. Read a high IC50 as lower potency.

Each structure is given as a SMILES string.

In the case of `Fc1ccc(-c2cn3cc(C(F)(F)F)cc(Cl)c3n2)cc1` [Compound X15695, 8-Chloro-2-(4-fluorophenyl)-6-(trifluoromethyl)imidazo[1,2-a]pyridine], the ROS production entry is “significant dose-dependent production of ROS” in data set [1] (MCF-7 cells) and “not in T47D cells” in data set [1] (T47D cells). Besides, the half-maximal inhibitory concentration (IC50) stood at 40.2 ± 16.7 nM in data set [2]; 1340 nM in data set [4]; 3.5 ± 1.7 nM in [6] (Homo sapiens, MCF7, Breast Cancer (MCF-7), ER+, inhibition of clonal expansion); 5540 nM in data set [7]; 2040 nM in data set [8]; 10.4 ± 2.8 nM in [9]. Besides, in [12], the midpoint of inhibition, the IC50, lay at 7.3 ± 1.6 nM. For the same compound, the “effect on clonal expansion” value is given as “did not have any effect” in data set [3]; “did not have any effect” in [5]; “dose-dependently inhibited the clonal expansion” in [6] (MCF-7 cells, compared with HeLa, A549 and U2OS); “did not have any effect” in data set [11]. Also, the “inhibition of clonal expansion” value in data set [10] is recorded as “active”. In addition, in [13] (setting [15]), the tumor volume result is reported as “significant decrease”. Further, the tumor weight entry in data set [13] (setting [15]) is reported as “significant decrease”. Also, the “tolerability, body weight” value was “well tolerated and did not cause any weight loss or other signs of host toxicity” in data set [13] (30 mg/kg body weight per os daily, 16 days); “well tolerated during the study and no sign of toxicity or weight loss was observed” in [14] (oral). In [13] (setting [16]), the “ERα level in tumor lysates” value is “significant decrease in ERα level”. Moreover, the “p53 expression in tumor lysates” value in data set [13] (setting [16]) is “increase in p53 expression”. In addition, in data set [14] (oral 30 mg/kg/day, less effective than enzalutamide (10 mg/kg/day)), the tumor growth entry is “effectively inhibit tumor growth over vehicle”.
